Here are results for nine compounds from patent US20220324835A1 (Nurix Therapeutics, Inc., priority 2018, published 2022).

One assay deals with T-cell. Kind of assay: CD25 cell surface staining on T-cells stimulated with anti-CD3 antibody alone (Biological Example 2). In kind it is cell-based. Conditions: primary human total T-cells, baseline = anti-CD3/anti-CD28 stimulated cells without inhibitor, read-out: CD25 staining, Anti-CD3 stimulation, fold change over baseline; for fold induction at 1 µM: 1 μM compound; for fold induction at 8 µM: 8 μM compound.

For a further assay, the system named is T-cells. The assay can be described thus: In vivo activity: CD25 expression on CD4+ or CD8+ T-cells of mice stimulated with anti-CD3 antibody. Conditions: 2 μg anti-CD3 antibody, 24 hours. Summed up: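 C57BL/6 or BALB/c mice dosed with inhibitor (IV, IP, SC or PO, e.g. BID or TID), then stimulated with 2 μg anti-CD3 antibody. Plasma IL-2, IFNγ, TNFα at 8 h and CD25 on CD4+/CD8+ T-cells by flow cytometry at 24 h; fold change over vehicle plus anti-CD3, binned A–E.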

Consider `Cn1cnnc1CC1(c2cccc(N3Cc4c(cc(CN5CC[C@H](F)C5)cc4C(F)(F)F)C3=O)c2)COC1` [Compound 410, 6-{[(3S)-3-fluoropyrrolidin-1-yl]methyl}-2-(3-{3-[(4-methyl-4H-1,2,4-triazol-3-yl)methyl]oxetan-3-yl}phenyl)-4-(trifluoromethyl)-2,3-dihydro-1H-isoindol-1-one], for which, in the assay on T-cell, the fold induction at 1 µM was over 1 and the fold induction at 8 µM is over 1. In the assay with T-cells (90 mpk PO BID), the “CD4+ T-cell % CD25+” value was “D (D indicates 1.00-1.50)” and the “CD8+ T-cell % CD25+” value is listed as “D (D indicates 1.00-1.50)”. For the same compound, in the assay on T-cells (135 mpk PO BID), the “CD4+ T-cell % CD25+” value is “D (D indicates 1.00-1.50)” and the “CD8+ T-cell % CD25+” value is on record as “D (D indicates 1.00-1.50)”. In the assay on T-cells (180 mpk PO BID), the “CD4+ T-cell % CD25+” value was “D (D indicates 1.00-1.50)” and the “CD8+ T-cell % CD25+” value was “D (D indicates 1.00-1.50)”.
Regarding `C[C@@H](c1cc2c(c(C(F)(F)F)c1)CN(c1cccc(C3(Cc4nncn4C)COC3)c1)C2=O)N1CC[C@H](F)C1` [Compound 412, 6-((S)-1-((S)-3-fluoropyrrolidin-1-yl)ethyl)-2-(3-(3-((4-methyl-4H-1,2,4-triazol-3-yl)methyl)oxetan-3-yl)phenyl)-4-(trifluoromethyl)isoindolin-1-one], in the assay with T-cell, the fold induction at 1 µM is over 1 and the fold induction at 8 µM is over 1. Besides, in the assay with T-cells (90 mpk PO BID), the “CD4+ T-cell % CD25+” value is “D (D indicates 1.00-1.50)” and the “CD8+ T-cell % CD25+” value is “D (D indicates 1.00-1.50)”. Besides, in the assay on T-cells (135 mpk PO BID), the “CD4+ T-cell % CD25+” value is on record as “C (C indicates 1.51-2.00)” and the “CD8+ T-cell % CD25+” value was “D (D indicates 1.00-1.50)”. In addition, in the assay with T-cells (180 mpk PO BID), the “CD4+ T-cell % CD25+” value was “B (B indicates 2.01-2.50)” and the “CD8+ T-cell % CD25+” value is reported as “D (D indicates 1.00-1.50)”.
As to `C[C@H](c1cc2c(c(C(F)(F)F)c1)CN(c1cccc(C3(Cc4nncn4C)COC3)c1)C2=O)N1CC[C@H](F)C1` [Compound 413, 6-((R)-1-((S)-3-fluoropyrrolidin-1-yl)ethyl)-2-(3-(3-((4-methyl-4H-1,2,4-triazol-3-yl)methyl)oxetan-3-yl)phenyl)-4-(trifluoromethyl)isoindolin-1-one], in the assay with T-cell, the fold induction at 1 µM was over 1 and the fold induction at 8 µM was over 1. Further, in the assay on T-cells (90 mpk PO BID), the “CD4+ T-cell % CD25+” value is given as “D (D indicates 1.00-1.50)” and the “CD8+ T-cell % CD25+” value was “D (D indicates 1.00-1.50)”. In addition, in the assay with T-cells (135 mpk PO BID), the “CD4+ T-cell % CD25+” value was “D (D indicates 1.00-1.50)” and the “CD8+ T-cell % CD25+” value was “D (D indicates 1.00-1.50)”. Further, in the assay on T-cells (180 mpk PO BID), the “CD4+ T-cell % CD25+” value is given as “D (D indicates 1.00-1.50)” and the “CD8+ T-cell % CD25+” value is “D (D indicates 1.00-1.50)”.
As for `Cn1cnnc1CC1(c2cccc(N3Cc4c(cc(CN5CC(F)C5)cc4C(F)(F)F)C3=O)c2)COC1` [Compound 415, 6-((3-fluoroazetidin-1-yl)methyl)-2-(3-(3-((4-methyl-4H-1,2,4-triazol-3-yl)methyl)oxetan-3-yl)phenyl)-4-(trifluoromethyl)isoindolin-1-one], in the assay on T-cell, the fold induction at 1 µM is over 1 and the fold induction at 8 µM is over 1. Besides, in the assay on T-cells (90 mpk PO BID), the “CD4+ T-cell % CD25+” value was “D (D indicates 1.00-1.50)” and the “CD8+ T-cell % CD25+” value is reported as “D (D indicates 1.00-1.50)”. In the assay on T-cells (135 mpk PO BID), the “CD4+ T-cell % CD25+” value is given as “D (D indicates 1.00-1.50)” and the “CD8+ T-cell % CD25+” value is reported as “E (E indicates <1.00)”. Besides, in the assay on T-cells (180 mpk PO BID), the “CD4+ T-cell % CD25+” value is “D (D indicates 1.00-1.50)” and the “CD8+ T-cell % CD25+” value is on record as “E (E indicates <1.00)”.
For the compound `Cn1cnnc1CC1(c2cccc(N3Cc4c(cc(CN5CC[C@@H](C#N)C5)cc4C(F)(F)F)C3=O)c2)COC1` [Compound 421, (R)-1-((2-(3-(3-((4-methyl-4H-1,2,4-triazol-3-yl)methyl)oxetan-3-yl)phenyl)-3-oxo-7-(trifluoromethyl)isoindolin-5-yl)methyl)pyrrolidine-3-carbonitrile], in the assay with T-cell, the fold induction at 1 µM is over 1. Moreover, the fold induction at 8 µM with T-cell was over 1. The “CD4+ T-cell % CD25+” value with T-cells (90 mpk PO BID), in the assay on T-cells (135 mpk PO BID) and with T-cells (180 mpk PO BID) was “E (E indicates <1.00)” throughout. Moreover, the “CD8+ T-cell % CD25+” value in the assay with T-cells (90 mpk PO BID), in the assay on T-cells (135 mpk PO BID) and in the assay with T-cells (180 mpk PO BID) was “E (E indicates <1.00)” throughout.
For the compound `Cn1cnnc1CC1(c2cccc(N3Cc4c(cc(CN5C[C@H]6C[C@H]6C5)cc4C(F)(F)F)C3=O)c2)COC1` [Compound 429, 6-(((1R,5S)-3-azabicyclo[3.1.0]hexan-3-yl)methyl)-2-(3-(3-((4-methyl-4H-1,2,4-triazol-3-yl)methyl)oxetan-3-yl)phenyl)-4-(trifluoromethyl)isoindolin-1-one], in the assay with T-cell, the fold induction at 1 µM is over 1 and the fold induction at 8 µM is over 1. Moreover, in the assay with T-cells (135 mpk PO BID), the “CD4+ T-cell % CD25+” value is given as “D (D indicates 1.00-1.50)” and the “CD8+ T-cell % CD25+” value is “D (D indicates 1.00-1.50)”.
With `Cn1cnnc1CC1(c2cccc(N3Cc4c(cc(CN5CCC[C@H](F)C5)cc4C(F)(F)F)C3=O)c2)COC1` [Compound 432, 6-{[(3S)-3-fluoropiperidin-1-yl]methyl}-2-(3-{3-[(4-methyl-4H-1,2,4-triazol-3-yl)methyl]oxetan-3-yl}phenyl)-4-(trifluoromethyl)-2,3-dihydro-1H-isoindol-1-one], the fold induction at 1 µM in the assay with T-cell was over 1. Also, in the assay on T-cells (135 mpk PO BID), the “CD4+ T-cell % CD25+” value is “D (D indicates 1.00-1.50)” and the “CD8+ T-cell % CD25+” value is listed as “D (D indicates 1.00-1.50)”.
For `Cn1cnnc1C(F)(F)[C@](C)(F)c1cccc(N2Cc3c(cc(CN4CC[C@H](F)C4)cc3C(F)(F)F)C2=O)c1` [Compound 447, 6-(((S)-3-fluoropyrrolidin-1-yl)methyl)-2-(3-((R)-1,1,2-trifluoro-1-(4-methyl-4H-1,2,4-triazol-3-yl)propan-2-yl)phenyl)-4-(trifluoromethyl)isoindolin-1-one], in the assay with T-cell, the fold induction at 1 µM is over 1 and the fold induction at 8 µM was over 1. For the same compound, in the assay with T-cells (90 mpk PO BID), the “CD4+ T-cell % CD25+” value is reported as “D (D indicates 1.00-1.50)” and the “CD8+ T-cell % CD25+” value is “E (E indicates <1.00)”. Besides, in the assay on T-cells (135 mpk PO BID), the “CD4+ T-cell % CD25+” value is “D (D indicates 1.00-1.50)” and the “CD8+ T-cell % CD25+” value is “E (E indicates <1.00)”. Further, in the assay on T-cells (180 mpk PO BID), the “CD4+ T-cell % CD25+” value is recorded as “C (C indicates 1.51-2.00)” and the “CD8+ T-cell % CD25+” value is recorded as “D (D indicates 1.00-1.50)”.
For the compound `Cn1cnnc1C(F)(F)[C@](C)(F)c1cccc(N2Cc3c(cc(CN4CCC(F)(F)C4)cc3C(F)(F)F)C2=O)c1` [Compound 448, (R)-6-((3,3-difluoropyrrolidin-1-yl)methyl)-2-(3-(1,1,2-trifluoro-1-(4-methyl-4H-1,2,4-triazol-3-yl)propan-2-yl)phenyl)-4-(trifluoromethyl)isoindolin-1-one], the fold induction at 1 µM in the assay on T-cell is 0.801 to 1. Also, in the assay with T-cell, the fold induction at 8 µM is over 1. Moreover, the “CD4+ T-cell % CD25+” value with T-cells (90 mpk PO BID), with T-cells (135 mpk PO BID) and in the assay on T-cells (180 mpk PO BID) was “D (D indicates 1.00-1.50)” each time. The “CD8+ T-cell % CD25+” value with T-cells (90 mpk PO BID), with T-cells (135 mpk PO BID) and in the assay on T-cells (180 mpk PO BID) was “E (E indicates <1.00)” throughout.
